Measurements as given in patent US10246442B2, “4-Aminoquinazolin compounds as prolyl hydroxylase inhibitors” (JANSSEN PHARMACEUTICA NV, priority 2011, dated 2019).

How the values were obtained:
HIF1-α, Hela cells = assay: Cellular assay for HIF1-α in Hela cells; format: cell-based; details: Homo sapiens, 100 μM compound, 6 hours, percent of HIF stimulation relative to assay control compound 7-[(4-Chloro-phenyl)-(5-methyl-isoxazol-3-ylamino)-methyl]-quinolin-8-ol
Description: Cellular Assay for HIF1-α
Hela cells (ATCC, Manassas, Va.) were plated in 96-well plates at 20,000 cells per well in 100 μl of DMEM containing 10% fetal bovine serum, 1% non-essential amino acids, 50 IU/mL of penicillin and 50 μg/mL of streptomycin (all cell culture reagents from Invitrogen, Carlsbad, Calif.). 24 hours after plating, changed media to 100 ul of DMEM without 10% fetal bovine serum, 1.1 μl of the stock solution for each compound was added and incubated for 6 hours. All compounds were tested with a final compound concentration of 100 μM. The supernatant was removed and the cells were lysed in 55 μl of MSD lysis buffer containing protease inhibitors. 50 μl of the cell lysate was then transferred to a blocked MSD human HIF-1α detection plate (Meso-Scale Discovery, Gaithersburg, Md., as per manufacturers protocol), and incubated at room temperature on an orbital shaker for 2 hour. After 3 washes in PBS, 25 μl of 20 nM anti-HIF1α a detection antibody was added and incubated for 1 hour at room temperature on an orbital shaker. After 3 washes in PBS, 150 μl of 1× read buffer was added and the plate was then read on a MSD SECTOR instrument. Data was analyzed by determining the percent of HIF stimulation in the presence of 100 μM compound relative to an assay control compound, 7-[(4-Chloro-phenyl)-(5-methyl-isoxazol-3-ylamino)-methyl]-quinolin-8-ol.

PHD2181-417 = PHD2181-417 (Homo sapiens (Human), UniProt Q9GZT9); assay: PHD enzymatic assay ([14C]-succinic acid production); format: biochemical; details: purified PHD2181-417, HIF-1α peptide substrate, 30 min pre-incubation; average of results
How it was run: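 Recombinant human PHD2 (aa 181-417, E. coli-expressed, tags cleaved) with peptide substrate (10 μM) and [5-14C]-2-oxoglutarate in Tris pH 7.5 with catalase, DTT and ascorbate, 10 min reaction after 30 min compound pre-incubation; compounds at 100 μM final, 1% DMSO. [14C]-succinate separated by DNP precipitation and beta-counted; IC50 from three-parameter logistic fit.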

PHD2181-417, sequence (Q9GZT9 181-417): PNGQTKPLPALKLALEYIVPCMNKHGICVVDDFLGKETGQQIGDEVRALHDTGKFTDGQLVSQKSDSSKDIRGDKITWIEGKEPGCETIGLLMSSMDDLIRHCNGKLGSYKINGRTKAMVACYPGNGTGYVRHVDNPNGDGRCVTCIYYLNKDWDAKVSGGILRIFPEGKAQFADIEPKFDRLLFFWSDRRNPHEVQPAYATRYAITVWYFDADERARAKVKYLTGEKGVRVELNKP

Enzyme pIC50 (PHD2181-417) | SMILES | activation at 100 µM (HIF1-α, Hela cells) [%]
6.9 | Cc1cccc(C)c1Oc1cc2c(N3CCC(O)CC3)nc(-n3cc(C(=O)O)cn3)nc2cc1F [Example 19, 1-(6-(2,6-Dimethylphenoxy)-7-fluoro-4-(4-hydroxypiperidin-1-yl)quinazolin-2-yl)-1H-pyrazole-4-carboxylic acid] | 140
7.3 | O=C(O)c1cnn(-c2nc(N3CCCC3)c3cc(-c4ccccc4)ccc3n2)c1 [Example 43, 1-(6-Phenyl-4-(pyrrolidin-1-yl)quinazolin-2-yl)-1H-pyrazole-4-carboxylic acid] | 57
6.9 | CC(=O)NC1CCN(c2nc(-n3cc(C(=O)O)cn3)nc3cc(F)c(Oc4c(C)cccc4C)cc23)CC1 [Example 21, 1-(4-(4-Acetamidopiperidin-1-yl)-6-(2,6-dimethylphenoxy)-7-fluoroquinazolin-2-yl)-1H-pyrazole-4-carboxylic acid] | 62
6.8 | O=C(O)c1cnn(-c2nc(NCC3CCCCC3)c3ccc(Oc4ccccc4)cc3n2)c1 [Example 84, 1-(4-((Cyclohexylmethyl)amino)-7-phenoxyquinazolin-2-yl)-1H-pyrazole-4-carboxylic acid] | 4.6
6.5 | O=C(O)c1cnn(-c2nc(NC3CCOCC3)c3cc(Oc4ccccc4)ccc3n2)c1 [Example 76, 1-(6-Phenoxy-4-((tetrahydro-2H-pyran-4-yl)amino)quinazolin-2-yl)-1H-pyrazole-4-carboxylic acid] | 19
7.1 | N#CNc1nc(-n2cc(C(=O)O)cn2)nc2ccc(-c3ccccc3)cc12 [Example 50, 1-(4-Cyanamido-6-phenylquinazolin-2-yl)-1H-pyrazole-4-carboxylic acid] | 9.6
6.9 | CCN(CC)c1nc(-n2cc(C(=O)O)cn2)nc2cc(Br)ccc12 [Example 96, 1-(7-Bromo-4-(diethylamino)quinazolin-2-yl)-1H-pyrazole-4-carboxylic acid] | 72
7.3 | O=C(O)c1cnn(-c2nc(N3CCSCC3)c3cc(Oc4ccc(Cl)cc4)ccc3n2)c1 [Example 67, 1-(6-(4-Chlorophenoxy)-4-thiomorpholinoquinazolin-2-yl)-1H-pyrazole-4-carboxylic acid] | 31
6.8 | CC(C)(C)Nc1nc(-n2cc(C(=O)O)cn2)nc2ccc(C3CCCCC3)cc12 [Example 36, 1-(4-(tert-Butylamino)-6-cyclohexylquinazolin-2-yl)-1H-pyrazole-4-carboxylic acid] | 23
7.1 | O=C(O)c1cnn(-c2nc(Nc3ccccc3Cl)c3cc(C4CCCCC4)ccc3n2)c1 [Example 29, 1-(4-((2-Chlorophenyl)amino)-6-cyclohexylquinazolin-2-yl)-1H-pyrazole-4-carboxylic acid] | 7.8
7.0 | O=C(O)c1cnn(-c2nc(NC3CCCCC3)c3ccc(Oc4ccccc4)cc3n2)c1 [Example 97, 1-(4-(Cyclohexylamino)-7-phenoxyquinazolin-2-yl)-1H-pyrazole-4-carboxylic acid] | 55
7.5 | O=C(O)c1cnn(-c2nc(N3CCCCCC3)c3cc(Oc4ccc(Cl)cc4)ccc3n2)c1 [Example 66, 1-(4-(Azepan-1-yl)-6-(4-chlorophenoxy)quinazolin-2-yl)-1H-pyrazole-4-carboxylic acid] | 14
7.3 | CCN(CC)c1nc(-n2cc(C(=O)O)cn2)nc2ccc(Oc3ccccc3)cc12 [Example 74, 1-(4-(Diethylamino)-6-phenoxyquinazolin-2-yl)-1H-pyrazole-4-carboxylic acid] | 81
6.3 | O=C(O)c1cnn(-c2nc(N3CCSCC3)c3ccc(Oc4ccccc4)cc3n2)c1 [Example 90, 1-(7-Phenoxy-4-thiomorpholinoquinazolin-2-yl)-1H-pyrazole-4-carboxylic acid] | 7.7
7.1 | O=C(O)c1cnn(-c2nc(N3CCC(F)CC3)c3cc(C4CCCCC4)ccc3n2)c1 [Example 31, 1-(6-Cyclohexyl-4-(4-fluoropiperidin-1-yl)quinazolin-2-yl)-1H-pyrazole-4-carboxylic acid] | 34
6.7 | CC(C)(C)Nc1nc(-n2cc(C(=O)O)cn2)nc2ccc(Oc3ccccc3)cc12 [Example 72, 1-(4-(tert-Butylamino)-6-phenoxyquinazolin-2-yl)-1H-pyrazole-4-carboxylic acid] | 32
6.3 | CC(C)(C)Nc1nc(-n2cc(C(=O)O)cn2)nc2cc(Oc3ccccc3)ccc12 [Example 99, 1-(4-(tert-Butylamino)-7-phenoxyquinazolin-2-yl)-1H-pyrazole-4-carboxylic acid] | 31
6.8 | CC(C)C1CCN(c2nc(-n3cc(C(=O)O)cn3)nc3cc(Oc4ccccc4)ccc23)CC1 [Example 85, 1-(4-(4-isopropylpiperidin-1-yl)-7-phenoxyquinazolin-2-yl)-1H-pyrazole-4-carboxylic acid] | 1.7
6.7 | Cc1cccc(C)c1Oc1cc2c(N3CCCN(C)CC3)nc(-n3cc(C(=O)O)cn3)nc2cc1F [Example 17, 1-(6-(2,6-Dimethylphenoxy)-7-fluoro-4-(4-methyl-1,4-diazepan-1-yl)quinazolin-2-yl)-1H-pyrazole-4-carboxylic acid] | 47
6.5 | O=C(O)c1cnn(-c2nc(N3CCOCC3)c3cc(-c4ccccc4)ccc3n2)c1 [Example 58, 1-(4-Morpholino-6-phenylquinazolin-2-yl)-1H-pyrazole-4-carboxylic acid] | 49
6.9 | O=C(O)c1cnn(-c2nc(NCC3CCCCC3)c3cc(C4CCCCC4)ccc3n2)c1 [Example 39, 1-(6-Cyclohexyl-4-((cyclohexylmethyl)amino)quinazolin-2-yl)-1H-pyrazole-4-carboxylic acid] | 6.1
7.0 | Cc1cccc(C)c1Oc1cc2c(N3CCSCC3)nc(-n3cc(C(=O)O)cn3)nc2cc1F [Example 18, 1-(6-(2,6-Dimethylphenoxy)-7-fluoro-4-thiomorpholinoquinazolin-2-yl)-1H-pyrazole-4-carboxylic acid] | 15
6.7 | O=C(O)c1cnn(-c2nc(NCC3CC3)c3ccc(Oc4ccccc4)cc3n2)c1 [Example 98, 1-(4-((Cyclopropylmethyl)amino)-7-phenoxyquinazolin-2-yl)-1H-pyrazole-4-carboxylic acid] | 46
6.3 | O=C(O)c1cnn(-c2nc(NC3CC3)c3ccc(Oc4ccccc4)cc3n2)c1 [Example 86, 1-(4-(Cyclopropylamino)-7-phenoxyquinazolin-2-yl)-1H-pyrazole-4-carboxylic acid] | 13
7.0 | Nc1nc(-n2cc(C(=O)O)cn2)nc2ccc(-c3ccccc3)cc12 [Example 53, 1-(4-Amino-6-phenylquinazolin-2-yl)-1H-pyrazole-4-carboxylic acid] | 16
